Experimental data taken from US7687644B2, “Adamantyl pyrrolidin-2-one derivatives as 11-beta hydroxysteroid dehydrogenase inhibitors” (Janssen Pharmaceutica NV, priority 2004, dated 2010).

Tests used:
[1] = biological target: T1, 11β-HSD1 (Mus musculus, UniProt P50172); experiment: Cellular assay, 11β-HSD1 activity in differentiated 3T3-L1 cells; assay type: cell-based; settings: 4 hour pre-incubation, read-out: [C2] HSD1 cellular 3T3-L1 Score
T1 construct: endogenous in cells; host or cells: 3T3-L1 (ATCC-CL-173), differentiated into adipocytes
T1 sequence (P50172 whole entry): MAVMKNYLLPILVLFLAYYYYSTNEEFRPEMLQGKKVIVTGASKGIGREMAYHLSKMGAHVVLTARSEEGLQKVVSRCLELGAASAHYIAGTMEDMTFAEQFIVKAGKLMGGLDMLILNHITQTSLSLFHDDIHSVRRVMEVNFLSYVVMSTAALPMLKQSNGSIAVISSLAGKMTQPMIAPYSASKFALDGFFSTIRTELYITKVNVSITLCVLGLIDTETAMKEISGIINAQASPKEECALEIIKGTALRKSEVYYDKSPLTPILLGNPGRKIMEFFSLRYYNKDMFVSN
Method: The effects on 11β-HSD1 activity was measured in differentiated 3T3-L1 cells and rat hepatocytes.
Medium was refreshed twice a week.
One hour later, the medium was extracted on Extrelut^3-columns with 15 ml diethyl ether and the extract was analysed by HPLC as described above.
As for the enzymatic assays, the compounds to be tested were taken from a stock is solution and tested at a final concentration ranging from −10^−5M to 3·10^−9M.

[2] = biological target: T2, 11β-HSD2 (Homo sapiens, UniProt P80365); experiment: Enzymatic assay, 11β-HSD2 dependent dehydrogenase activity; assay type: biochemical; settings: recombinant protein, 100 nM cortisol, 45 minutes at 37° C.; read-out: [C1] HSD2-prot Dehydro Score
T2 sequence (P80365 1-405): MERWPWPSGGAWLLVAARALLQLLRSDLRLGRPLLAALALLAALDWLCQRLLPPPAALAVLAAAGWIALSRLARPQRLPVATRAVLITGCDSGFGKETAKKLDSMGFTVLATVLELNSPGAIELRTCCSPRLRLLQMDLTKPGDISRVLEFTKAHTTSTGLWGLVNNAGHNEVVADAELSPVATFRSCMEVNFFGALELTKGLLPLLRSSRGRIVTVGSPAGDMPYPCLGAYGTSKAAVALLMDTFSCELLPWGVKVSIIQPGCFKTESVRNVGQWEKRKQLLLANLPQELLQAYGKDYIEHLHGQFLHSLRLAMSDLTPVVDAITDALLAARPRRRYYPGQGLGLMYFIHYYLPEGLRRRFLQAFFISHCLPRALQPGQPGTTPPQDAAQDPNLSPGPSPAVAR
Method: The effects on the 11β-HSD2 dependent dehydrogenase activity was studied in a reaction mixture containing 0.1M sodium phosphate buffer pH 7.5, 300 μM NAD, 100 nM cortisol (of which 2 nM is 3H-radio labelled), 1 μl drug and/or solvent and 2.5 μg recombinant protein in a final volume of 100 μl.
(§1) All incubations were performed for 45 minutes at 37° C. in a water bath. The reaction was stopped by adding 100 μl acetonitrile containing 20 μg corticosterone as internal standard. After centrifugation, the product formation was analysed in the supernatant by HPLC on a Hypersyl BDS-C18 column using 0.05 mM ammonium acetate/methanol (50/50) as solvent. In all of the aforementioned assays, the drugs to be tested were taken from a stock solution and tested at a final concentration ranging from −10^−5M to 3·10^−9M. From the thus obtained dose response curves, the pIC50 value was calculated and scored as follows; Score 1=pIC50 value<5, Score 2=pIC50 value in the range of 5 to 6, Score 3=pIC50 value>6. Some of the thus obtained results are summarized in the table below (in this table NT stands for Not Tested).

[3] = biological target: T2, 11β-HSD2; experiment: Cellular assay, 11β-HSD2 activity in HepG2 cells; assay type: cell-based; parameters: endogenous in cells; host or cells: HepG2 (ATCC HB-8065); settings: 4 hour pre-incubation, read-out: [C2] HSD2 cellular HepG2 Score
Method: The effects on 11β-HSD2 activity was studied in HepG2 and LCC-PK1-cells HepG2-cells (ATCC HB-8065) were seeded in 12 well plates at a density of 100,000′ cells/ml and grown at 37° C. in a humidified 5% CO2 atmosphere in MEM-Rega-3 medium supplemented with 10% heat inactivated foetal calf serum, 2 mM L-glutamine and sodium bicarbonate). Medium was refreshed twice a week.
Following a 4 hour pre-incubation with test compound, 0.5 μCi ^3H-cortisol or corticosterone, was added to the cultures. One hour later, the medium was extracted on Extrelut^3-columns with 15 ml diethyl ether and the extract was analysed by HPLC as described above.
As for the enzymatic assays, the compounds to be tested were taken from a stock is solution and tested at a final concentration ranging from −10^−5M to 3·10^−9M. From the thus obtained dose response curves, the pIC50 value was calculated and scored as follows; Score 1=pIC50 value<5, Score 2=pIC50 value in the range of 5 to 6, Score 3=pIC50 value>6. Some of the thus obtained results are summarized in the table below (in this table NT stands for Not Tested).

[4] = biological target: 11β-HSD1 (Homo sapiens, UniProt P28845); experiment: Enzymatic assay, 11β-HSD1 reductase activity (conversion of cortisone into cortisol); assay type: biochemical; settings: recombinant protein, 2 μM cortisone, 45 minutes at 37° C.; read-out: [C1] HSD1-prot Reduct Score
Sequence of 11β-HSD1 (Homo sapiens, UniProt P28845) (P28845 whole entry, species assumed): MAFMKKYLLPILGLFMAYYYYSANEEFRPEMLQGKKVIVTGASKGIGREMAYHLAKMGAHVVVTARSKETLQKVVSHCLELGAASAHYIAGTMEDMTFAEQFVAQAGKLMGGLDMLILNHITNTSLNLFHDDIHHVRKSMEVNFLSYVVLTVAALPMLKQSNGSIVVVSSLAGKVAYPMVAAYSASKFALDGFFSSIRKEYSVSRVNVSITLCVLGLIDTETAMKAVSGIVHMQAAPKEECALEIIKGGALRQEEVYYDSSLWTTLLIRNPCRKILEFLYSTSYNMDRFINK
Method: The effects of compounds on 11β-HSD1 dependent conversion of cortisone into cortisol (reductase activity) was studied in a reaction mixture containing 30 mM Tris-HCl buffer pH 7.2, 180 μM NADPH, 1 mM EDTA, 2 μM cortisone, 1 μl drug and/or solvent and 11 μg recombinant protein in a final volume of 100 μl.
as §1

## O=C1C(Cc2ccccc2)CCN1C1C2CC3CC(C2)CC1C3 (centres unmarked) [Compound 33]
[1]
  IC50: < 1 µM

## COc1cc(CC2(C)CCCN(C3C4CC5CC(C4)CC3C5)C2=O)cc(OC)c1 (centres unmarked) [Compound 28]
[1]
  IC50: > 10 µM

## Cc1cccc(CC2(C)CCN([C@@H]3CC[C@]4(O)CC5CC4[C@H]3C5)C2=O)c1F (some centres unmarked) [Compound 40]
[1]
  IC50: < 1 µM
[2]
  IC50: > 10 µM
[3]
  IC50: 1 to 10 µM

## O=C1C(Cc2cc(F)cc(C(F)(F)F)c2)CCN1C1C2CC3CC(C2)CC1C3 (centres unmarked) [Compound 10]
[1]
  IC50: 1 to 10 µM

## O=C1C(Cc2ccc(Cl)cc2)CCN1C1C2CC3CC(C2)CC1C3 (centres unmarked) [Compound 13]
[1]
  IC50: > 10 µM
[4]
  IC50: < 1 µM
[3]
  IC50: > 10 µM

## Cc1cccc(C)c1CC1CCN(C2C3CC4CC(C3)CC2C4)C1=O (centres unmarked) [Compound 12]
[1]
  IC50: > 10 µM

## Cc1cc(C)cc(CC2CCN(C3C4CC5CC(C4)CC3C5)C2=O)c1 (centres unmarked) [Compound 11]
[1]
  IC50: < 1 µM

## COc1cc(CC2(C)CCN(C3C4CC5CC(C4)CC3C5)C2=O)cc(OC)c1 (centres unmarked) [Compound 20]
[1]
  IC50: < 1 µM

## CC1(Cc2ccc(OC(F)(F)F)cc2)CCN(C2C3CC4CC(C3)CC2C4)C1=O (centres unmarked) [Compound 17]
[1]
  IC50: < 1 µM

## COc1cccc(CC2CCCN(C3C4CC5CC(C4)CC3C5)C2=O)c1 (centres unmarked) [Compound 21]
[1]
  IC50: < 1 µM

## Cc1ccc(CC2CCN(C3C4CC5CC(C4)CC3C5)C2=O)cc1 (centres unmarked) [Compound 16]
[1]
  IC50: < 1 µM
[4]
  IC50: < 1 µM
[3]
  IC50: > 10 µM

## COc1cccc(CC2(C)CCN(C3C4CC5CC(C4)CC3C5)C2=O)c1 (centres unmarked) [Compound 29]
[1]
  IC50: < 1 µM
[4]
  IC50: < 1 µM
[3]
  IC50: 1 to 10 µM

## Cc1cc(C)cc(CC2CCCN(C3C4CC5CC(C4)CC3C5)C2=O)c1 (centres unmarked) [Compound 24]
[1]
  IC50: > 10 µM

## COc1cc(CC2CCCN(C3C4CC5CC(C4)CC3C5)C2=O)cc(OC)c1 (centres unmarked) [Compound 25]
[1]
  IC50: < 1 µM

## CC1(Cc2ccccc2)CCN([C@@H]2CC[C@]3(O)CC4CC3[C@H]2C4)C1=O (some centres unmarked) [Compound 38]
[1]
  IC50: < 1 µM
[2]
  IC50: > 10 µM

## Cc1cccc(CC2CCCN(C3C4CC5CC(C4)CC3C5)C2=O)c1F (centres unmarked) [Compound 26]
[1]
  IC50: < 1 µM

## COc1cccc(CC2(C)CCCN(C3C4CC5CC(C4)CC3C5)C2=O)c1 (centres unmarked) [Compound 27]
[1]
  IC50: > 10 µM

## COc1cccc(CC2CCN(C3C4CC5CC(C4)CC3C5)C2=O)c1 (centres unmarked) [Compound 3]
[1]
  IC50: < 1 µM
[4]
  IC50: < 1 µM
[3]
  IC50: > 10 µM

## CC1(Cc2ccc(F)cc2)CCN(C2C3CC4CC(C3)CC2C4)C1=O (centres unmarked) [Compound 30]
[1]
  IC50: < 1 µM
[4]
  IC50: < 1 µM
[3]
  IC50: > 10 µM

## O=C1C(Cc2cccc(C(F)(F)F)c2F)CCN1C1C2CC3CC(C2)CC1C3 (centres unmarked) [Compound 7]
[1]
  IC50: < 1 µM

## Cc1cccc(CC2(C)CCN(C3C4CC5CC(C4)CC3C5)C2=O)c1F (centres unmarked) [Compound 2]
[1]
  IC50: < 1 µM
[4]
  IC50: < 1 µM
other
  melting point: 120.5 to 122 °C
[3]
  IC50: > 10 µM

## Cc1cccc(C)c1CC1(C)CCN(C2C3CC4CC(C3)CC2C4)C1=O (centres unmarked) [Compound 18]
[1]
  IC50: > 10 µM

## Cc1cccc(C)c1CC1CCCN(C2C3CC4CC(C3)CC2C4)C1=O (centres unmarked) [Compound 22]
[1]
  IC50: > 10 µM

## CC1(Cc2ccccc2)CCN(C2C3CC4CC(C3)CC2C4)C1=O (centres unmarked) [Compound 32]
[1]
  IC50: < 1 µM

## O=C1C(Cc2ccc(OC(F)(F)F)cc2)CCN1C1C2CC3CC(C2)CC1C3 (centres unmarked) [Compound 15]
[1]
  IC50: > 10 µM

## O=C1C(Cc2ccc(OC(F)(F)F)cc2)CCCN1C1C2CC3CC(C2)CC1C3 (centres unmarked) [Compound 23]
[1]
  IC50: > 10 µM

## O=C1C(Cc2cccc(Br)c2)CCN1C1C2CC3CC(C2)CC1C3 (centres unmarked) [Compound 5]
[1]
  IC50: < 1 µM

## O=C1C(Cc2cccc(OC(F)(F)F)c2)CCN1C1C2CC3CC(C2)CC1C3 (centres unmarked) [Compound 4]
[1]
  IC50: < 1 µM

## Cc1cccc(CC2CCN([C@@H]3CC[C@]4(O)CC5CC4[C@H]3C5)C2=O)c1F (some centres unmarked) [Compound 39]
[1]
  IC50: < 1 µM
[2]
  IC50: > 10 µM

## COc1cccc(CC2(Cc3cccc(OC)c3)CCCN(C3C4CC5CC(C4)CC3C5)C2=O)c1 (centres unmarked) [Compound 31]
[1]
  IC50: > 10 µM

## Cc1cccc(CC2CCN(C3C4CC5CC(C4)CC3C5)C2=O)c1F (centres unmarked) [Compound 1]
[1]
  IC50: < 1 µM
[4]
  IC50: < 1 µM
other
  melting point: 101 to 102 °C
[3]
  IC50: > 10 µM

## O=C1N(C2C3CC4CC(C3)CC2C4)C2CCC1(c1ccccc1)CC2 (centres unmarked) [Compound 34]
[1]
  IC50: > 10 µM

## COc1cc(CC2CCN(C3C4CC5CC(C4)CC3C5)C2=O)cc(OC)c1 (centres unmarked) [Compound 8]
[1]
  IC50: < 1 µM
[4]
  IC50: < 1 µM
[3]
  IC50: > 10 µM

## O=C1N(C2C3CC4CC(C3)CC2C4)C2CCC1(Cc1ccccc1)CC2 (centres unmarked) [Compound 36]
[1]
  IC50: < 1 µM

## O=C1C(Cc2ccccc2)CCN1[C@@H]1CC[C@]2(O)CC3CC2[C@H]1C3 (some centres unmarked) [Compound 37]
[1]
  IC50: < 1 µM
[3]
  IC50: > 10 µM

## Cc1cc(C)cc(CC2(C)CCN(C3C4CC5CC(C4)CC3C5)C2=O)c1 (centres unmarked) [Compound 19]
[1]
  IC50: < 1 µM

## CC1(c2ccccc2)CCN(C2C3CC4CC(C3)CC2C4)C1=O (centres unmarked) [Compound 35]
[1]
  IC50: < 1 µM

## O=C1C(Cc2ccc(F)cc2)CCN1C1C2CC3CC(C2)CC1C3 (centres unmarked) [Compound 14]
[1]
  IC50: < 1 µM
[4]
  IC50: < 1 µM
[3]
  IC50: > 10 µM

## O=C1C(Cc2cc(C(F)(F)F)cc(C(F)(F)F)c2)CCN1C1C2CC3CC(C2)CC1C3 (centres unmarked) [Compound 9]
[1]
  IC50: > 10 µM

## N#Cc1cccc(CC2CCN(C3C4CC5CC(C4)CC3C5)C2=O)c1 (centres unmarked) [Compound 6]
[1]
  IC50: < 1 µM
